How the values were obtained:
K562/R7 cells [1] = assay: Cytotoxicity assay using MTT reagent, with doxorubicin plus steroid modulator; assay type: cell-based, human; conditions: doxorubicin 10^−6M + steroid modulator 10^−6M, 72 h
Description: Doxorubicin at 10^−6 M was then added to each well. After incubation for 72 h, 20 μL of MTT reagent (5 mg/mL in PBS buffer) were added to each well and the plate was further incubated for 4 h at 37° C., allowing viable cells to change the yellow MTT into dark-blue formazan crystals. Supernatants were carefully discarded and 100 μL of isopropanol containing 10% HCL 1M were added to dissolve the formazan crystals. Absorbance in each well was determined at 570 nm using a microplate reader (MultisKan EX, Thermo Electron). […] At least three different experiments were performed. Results were expressed as the percentage of surviving cells in each well compared to untreated cells.

H295R cells xenograft = assay: In vivo efficiency in SCID mice xenografted with H295R cells
Description: (§1) FIGS. 7 and 8 represent the tumour volume of mice treated with vehicle ([…]), doxorubicin (∘), compound (33) alone (▾), and compound (33) with doxorubicin (Δ). The tumor volume is indicated as a function of days. FIG. 7 concerns mice xenografted with H295R cells and FIG. 8 concerns mice xenografted with R7 cells (the arrow indicates the beginning of treatment of mice).
(§2) For each xenograft, four groups of five mice developing a tumour in both flanks were employed. Group 1 received vehicle alone, group 2 received DOXO (1.5 mg/kg/mouse+vehicle), group 3 received (33) derivative (10 mg/kg/mouse solubilised with vehicle) and group 4 received DOXO+derivative.

H295R cells [2] = assay: Cytotoxicity assay using [^3H]thymidine incorporation in surviving cells, with doxorubicin plus steroid modulator; assay type: cell-based, human; conditions: comment on Table 2, both value columns
Description: Doxorubicine (DOXO) at 10^−6 M was added shortly thereafter to each well. […] Finally the precipitate was solubilized by addition of 300 μL of a solution of sodium deoxycholate (4% in NaOH 0.5 M) (O. Joly-Pharaboz et al., J Steroid Biochem. Mol. Biol. 73 (2000) 237-249). Radioactivity was measured (Tri-Carb 1900 CA, Packard) after addition of liquid scintillation cocktail (Perkin Elmer, Courtaboeuf, France). […] At least three different experiments were performed for each cell type.

R7 cells xenograft = assay: In vivo efficiency in SCID mice xenografted with R7 cells
Description: as §1, §2

resistant R7 cells = assay: Reversion of chemoresistance to doxorubicin by steroid modulators (modulation of IC50 for doxorubicin); assay type: cell-based, human; conditions: in vitro, cyclosporine A in the same conditions
Description: FIGS. 3 and 4 represent the effects of compounds of the invention (steroid modulators) on chemosensitization of resistant R7 cells to doxorubicin (DOXO), evaluated by [^3H]thymidine incorporation. Resistant R7 cells were incubated for 24 hours with increasing concentrations of doxorubicinin the absence (∘) or in the presence of said steroid modulators. As a control, the sensitive K562 cells were incubated with the same concentrations of doxorubicin ([…]).
Sensitive parental K562 cells were also treated with the same increasing concentrations of DOXO (from 10^−8 to 10^−4 M) in the absence of steroids, as a control.

R7 cells = assay: Intracellular accumulation of daunorubicin measured by flow cytometry; assay type: cell-based, human; conditions: daunorubicin 10 μM, compound 10 μM, 1 h at 37° C.
Description: The accumulation of daunorubicin in the presence of steroid modulators according to the invention, i.e. compounds having formula (I), was measured by flow cytometry using a reported procedure (G. Comte et al, J. Med. Chem., 44: 763-768, 2001). K562 or R7 cells ([…]) were incubated for 1 h at 37° C. with 1 mL RPMI 1640 medium containing daunorubicin at 10 μM, in the presence or absence of compounds of the invention (10 μM). The cells were then washed twice with ice-cold PBS and kept on ice until analysis by flow cytometry on a FACS-II (Becton-Dickinson Corp., Mountain View, Calif.). Assays were performed in duplicate, in at least three separate experiments.

H295R cells [3] = assay: cells
Description: (§3) After treatment, the number of surviving cells was evaluated by the incorporation of [^3H]thymidine as described above.

K562/R7 cells [4] = assay: Determination of IC50 for cytotoxics ([^3H]thymidine incorporation)
Description: as §3

[5] = DOXO 1.5 mg/kg/mouse + derivative 10 mg/kg/mouse (group 4) versus groups 1, 2 and 3
[6] = DOXO + derivative (group 4), 40 days of treatment

Compound: CC(=O)C1CCC2C3C([C@H](OC4CCCCO4)C[C@]12C)[C@@]1(C)CCC(=O)C[C@H]1C[C@H]3OC(=O)c1ccccc1 (stereo partly drawn) [Compound 33, 7α-Benzoyloxy-11α-O-[2′(R)]tetrahydropyranyl-oxy(5β)pregnane-3,20-dione]
- Surviving cells R7 cells (% untreated cells) (K562/R7 cells [1]): 1.5 ± 0.9 % untreated cells
- development of tumour (H295R cells xenograft; [5]): delay in the development of tumour
- survival time (H295R cells xenograft; DOXO + derivative (group 4)): longer survival time
- tumour volume (H295R cells xenograft; [6]): remains low and stable
- activity to increase the cytotoxicity of doxorubicin (in words) (H295R cells [2]): activity similar to cyclosporine A
- development of tumour (R7 cells xenograft; [5]): delay in the development of tumour
- survival time (R7 cells xenograft; DOXO + derivative (group 4)): longer survival time
- tumour volume (R7 cells xenograft; [6]): remains low and stable
- potency relative to cyclosporine A in decreasing IC50 for doxorubicin (resistant R7 cells): 10 fold

Compound: CC(=O)[C@@]1(OC2CCCCO2)CCC2C3CC[C@@H]4CC(=O)CC[C@]4(C)C3[C@H](OC3CCCCO3)C[C@@]21C (stereo partly drawn) [Compound 51, 11α,17α-Bis-O-[2′(S),2′(R)]tetrahydropyranyloxy(5β)pregnane-3,20-dione]
- Daunorubicin accumulation (R7 cells): 68.02 ± 15.6 % of the accumulation measured in the presence of cyclosporine A
- potency relative to cyclosporine A in decreasing IC50 for doxorubicin (resistant R7 cells): 10 fold

Compound: COc1cccc2c1C(=O)c1c(O)c3c(c(O)c1C2=O)C[C@@](O)(C(=O)CO)C[C@@H]3O[C@H]1C[C@H](N)[C@H](O)[C@H](C)O1 [doxorubicin]
- IC50 (H295R cells [3]; Homo sapiens, NCI-H295R, 24 h, read-out: IC50 of cytotoxic drug (concentration inhibiting cell growth by 50%)): 20.6 µM
- IC50 (K562/R7 cells [4]; Homo sapiens, K562/R7, 24 h, read-out: IC50 of cytotoxic drug (concentration inhibiting cell growth by 50%)): 63.6 µM

Compound: O=C1c2c(O)ccc(O)c2C(=O)c2c(NCCNCCO)ccc(NCCNCCO)c21 [mitoxantrone]
- resistance of the cells to the cytotoxic drug (in words) (H295R cells [3]): resistant
- resistance of the cells to the cytotoxic drug (in words) (K562/R7 cells [4]): resistant

Compound: CC[C@]1(O)C[C@@H]2CN(CCc3c([nH]c4ccccc34)[C@@](C(=O)OC)(c3cc4c(cc3OC)N(C)[C@H]3[C@@](O)(C(=O)OC)[C@H](OC(C)=O)[C@]5(CC)C=CCN6CC[C@]43[C@@H]65)C2)C1 [vinblastine]
- resistance of the cells to the cytotoxic drug (in words) (K562/R7 cells [4]): resistant

Compound: CCC1=C[C@@H]2CN(C1)Cc1c([nH]c3ccccc13)[C@@](C(=O)OC)(c1cc3c(cc1OC)N(C)[C@H]1[C@@](O)(C(=O)OC)[C@H](OC(C)=O)[C@]4(CC)C=CCN5CC[C@]31[C@@H]54)C2 [vinorelbine]
- resistance of the cells to the cytotoxic drug (in words) (H295R cells [3]): resistant
